Experimental data taken from BindingDB's records for PubMed 8100350 (University of Pennsylvania, 1993).
Where a SMILES comes first, the peptide text is derived from it. Bridges are numbered along the chain shown (N, C = ends). [ ]: non-standard residue; d: D form. The star is where a group is joined. NH(1-naphthylmethyl) = c1ccc2c(CN*)cccc2c1; Phe(4-Cl) = N[C@@H](Cc1ccc(Cl)cc1)C(=O)O; dPhe(4-Cl) = N[C@H](Cc1ccc(Cl)cc1)C(=O)O; 2Nal = N[C@@H](Cc1ccc2ccccc2c1)C(=O)O; d2Nal = N[C@H](Cc1ccc2ccccc2c1)C(=O)O; 1Nal = N[CH](Cc1cccc2ccccc12)C(=O)O; dNMeF = CN[C@H](Cc1ccccc1)C(=O)O; Thr(ol) = C[CH](O)[CH](N)CO; dNMeA = CN[C@H](C)C(=O)O; Aoc = NCCCCCCCC(=O)O; Ahp = NCCCCCCC(=O)O; Ahx = NCCCCCC(=O)O; Bn = c1ccc(C*)cc1

Columns and labels:
[1] = biological target: Somatostatin receptor type 2 (Mus musculus, UniProt P30875)
[2] = biological target: Somatostatin receptor type 3 (Mus musculus, UniProt P30935)
[3] = biological target: Somatostatin receptor type 1 (Homo sapiens, UniProt P30872)
Sequence of Somatostatin receptor type 1 (P30872 whole entry): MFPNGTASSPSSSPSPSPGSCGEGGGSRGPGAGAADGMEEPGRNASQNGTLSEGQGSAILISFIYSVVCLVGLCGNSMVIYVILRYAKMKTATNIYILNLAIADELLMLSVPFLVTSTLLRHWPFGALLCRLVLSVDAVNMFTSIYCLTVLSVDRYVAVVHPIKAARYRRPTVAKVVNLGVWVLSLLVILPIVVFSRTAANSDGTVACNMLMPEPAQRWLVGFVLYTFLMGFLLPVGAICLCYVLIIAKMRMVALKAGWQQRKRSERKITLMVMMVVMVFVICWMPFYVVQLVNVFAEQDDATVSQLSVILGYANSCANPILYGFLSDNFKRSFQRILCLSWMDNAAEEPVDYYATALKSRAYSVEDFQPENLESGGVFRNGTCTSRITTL

Sequence of Somatostatin receptor type 2 (P30875 whole entry): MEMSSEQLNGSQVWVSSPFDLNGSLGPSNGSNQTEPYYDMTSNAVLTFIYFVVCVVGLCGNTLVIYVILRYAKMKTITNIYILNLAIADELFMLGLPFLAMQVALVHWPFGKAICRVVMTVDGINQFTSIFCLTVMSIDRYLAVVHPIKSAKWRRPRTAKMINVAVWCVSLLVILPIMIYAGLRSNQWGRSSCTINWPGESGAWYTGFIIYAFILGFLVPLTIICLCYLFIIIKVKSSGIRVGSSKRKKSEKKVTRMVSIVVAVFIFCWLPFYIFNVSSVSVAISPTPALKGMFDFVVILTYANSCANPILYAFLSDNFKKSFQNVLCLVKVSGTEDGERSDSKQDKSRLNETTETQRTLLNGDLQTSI
Sequence of Somatostatin receptor type 3 (P30935 whole entry): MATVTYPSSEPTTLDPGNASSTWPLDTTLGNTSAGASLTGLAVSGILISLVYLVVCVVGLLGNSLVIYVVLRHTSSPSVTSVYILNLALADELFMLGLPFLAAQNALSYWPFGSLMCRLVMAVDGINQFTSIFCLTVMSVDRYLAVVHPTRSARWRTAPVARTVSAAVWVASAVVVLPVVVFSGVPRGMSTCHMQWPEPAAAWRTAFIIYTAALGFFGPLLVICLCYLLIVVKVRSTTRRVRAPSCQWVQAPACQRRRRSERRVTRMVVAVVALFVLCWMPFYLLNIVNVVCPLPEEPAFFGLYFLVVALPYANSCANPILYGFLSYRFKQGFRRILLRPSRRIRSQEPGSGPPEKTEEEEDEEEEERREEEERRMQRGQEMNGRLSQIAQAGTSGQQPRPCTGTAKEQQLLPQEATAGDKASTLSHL

Question: What does the source list for `C[C@@H](O)[C@H](NC(=O)[C@H](Cc1ccccc1)NC(=O)[C@@H](NC(=O)[C@H](CCCCN)NC(=O)[C@@H](Cc1c[nH]c2ccccc12)NC(=O)[C@H](Cc1ccc(O)cc1)NC(=O)[C@H](Cc1ccc(Cl)cc1)NC(=O)[C@H](N)Cc1ccc2ccccc2c1)[C@@H](C)O)C(N)=O` [CAS_150155-63-8] (H-[d2Nal][Phe(4-Cl)]Y[dW]KTFT-NH2)?
Answer: Ki [1]: 40 nM; Ki [2]: 11 nM; Ki [3]: 1000 nM

Question: Which results are given for `CC(C)[C@H](NC(=O)[C@H](CCCCN)NC(=O)[C@@H](Cc1c[nH]c2ccccc12)NC(=O)[C@H](Cc1ccc(O)cc1)NC(=O)[C@H](C)NC(=O)[C@H](N)Cc1ccc(Cl)cc1)C(=O)N[C@@H](C)C(=O)N[C@@H](Cc1ccc2ccccc2c1)C(N)=O` [CAS_150155-67-2] (H-[dPhe(4-Cl)]AY[dW]KVA[2Nal]-NH2)?
Answer: Ki [1]: 22 nM; Ki [2]: 143 nM; Ki [3]: 1000 nM

Question: With `CC(C)[C@H](NC(=O)[C@H](CCCCN)NC(=O)[C@@H](Cc1c[nH]c2ccccc12)NC(=O)[C@H](Cc1ccc(O)cc1)NC(=O)[C@H](C)NC(=O)[C@H](N)Cc1ccc2ccccc2c1)C(=O)N[C@@H](C)C(=O)N[C@H](C(N)=O)[C@@H](C)O` [D-Nal-Ala-Tyr-D-Trp-Lys-Val-Ala-Thr-NH2] (H-[d2Nal]AY[dW]KVAT-NH2) as the compound, how does the Ki [1] read?
Answer: 86 nM

Question: And the Ki [2]?
Answer: 10 nM

Question: And the Ki [3]?
Answer: 1000 nM

Question: Which Ki [1] does the source give for `C[C@@H](O)[C@H](NC(=O)[C@@H]1CSSC[C@H](NC(=O)[C@H](N)Cc2ccc3ccccc3c2)C(=O)N[C@@H](Cc2ccc(O)cc2)C(=O)N[C@H](Cc2c[nH]c3ccccc23)C(=O)N[C@@H](CCCCN)C(=O)N[C@@H]([C@@H](C)O)C(=O)N1)C(N)=O` [D-Nal-c[Cys-Tyr-D-Trp-Lys-Thr-Cys]-Thr-NH2] here?
Answer: 0.008 nM

Question: What about the Ki [2] of the same compound?
Answer: 7.1 nM

Question: What about the Ki [3] of the same compound?
Answer: 1000 nM

Question: Which Ki [1] does the source give for `CC(C)[C@H](NC(=O)[C@H](CCCCN)NC(=O)[C@@H](Cc1c[nH]c2ccccc12)NC(=O)[C@H](Cc1ccc(O)cc1)NC(=O)[C@H](C)NC(=O)[C@H](N)Cc1ccccc1)C(=O)N[C@@H](C)C(=O)N[C@H](Cc1ccc2ccccc2c1)C(N)=O` [D-Phe-AIa-Tyr-D-Trp-Lys-Val-Ala-D-Nal-NH2] (H-[dF]AY[dW]KVA[d2Nal]-NH2) here?
Answer: 60 nM

Question: And the Ki [2]?
Answer: 65 nM

Question: And the Ki [3]?
Answer: 146 nM

Question: `CC[C@@H]1NC(=O)[C@H](CCCCN)NC(=O)[C@@H](Cc2c[nH]c3ccccc23)NC(=O)[C@H](Cc2ccc(O)cc2)NC(=O)[C@@H](NC(=O)[C@H](N)Cc2ccccc2)CSSC[C@@H](C(=O)N[C@H](C(N)=O)[C@@H](C)O)NC1=O` [D-Phe-L-Cys(1)-L-Tyr-D-Trp-L-Lys-L-Abu-L-Cys(1)-L-Thr-NH2] was tested. Which Ki [1] did it give?
Answer: 0.001 nM

Question: What about the Ki [2] of the same compound?
Answer: 13.5 nM

Question: And the Ki [3]?
Answer: 1000 nM

Question: `CC(C)[C@H](NC(=O)[C@H](CCCCN)NC(=O)[C@@H](Cc1c[nH]c2ccccc12)NC(=O)[C@H](Cc1ccc(O)cc1)NC(=O)[C@H](Cc1ccccc1)NC(=O)[C@H](N)Cc1ccccc1)C(=O)N[C@@H](Cc1ccccc1)C(=O)N[C@H](Cc1ccccc1)C(N)=O` [D-Phe-Phe-Tyr-D-Trp-Lys-Val-Phe-D-Phe-NH2] (H-[dF]FY[dW]KVF[dF]-NH2) was tested. Which Ki [1] did it give?
Answer: > 10000 nM

Question: What about the Ki [2] of the same compound?
Answer: 38 nM

Question: And the Ki [3]?
Answer: 1000 nM

Question: With `CC(C)C1NC(=O)C(CCCCN)NC(=O)C(Cc2c[nH]c3ccccc23)NC(=O)C(Cc2ccc(O)cc2)NC(=O)C(NC(=O)C(N)Cc2cccc3ccccc23)CSSCC(C(=O)NC(CO)C(C)O)NC1=O` (stereo not given) [DC23-60] (H-[1Nal]CYWKVC[Thr(ol)]; disulfide 2-7; configuration not given here) as the compound, how does the Ki [1] read?
Answer: 0.93 nM

Question: What about the Ki [2] of the same compound?
Answer: 166 nM

Question: What about the Ki [3] of the same compound?
Answer: 241 nM

Question: With `CC(O)C1NC(=O)C(CCCCN)NC(=O)C(Cc2c[nH]c3ccccc23)NC(=O)C(Cc2ccccc2)NC(=O)C(NC(=O)C(N)Cc2ccccc2)CSSCC(C(=O)NCc2cccc3ccccc23)NC1=O` (stereo not given) [EC5-21] (H-FCFWKTC-{NH(1-naphthylmethyl)}; disulfide 2-7; configuration not given here) as the compound, how does the Ki [1] read?
Answer: 4.8 nM

Question: And the Ki [2]?
Answer: 20 nM

Question: What about the Ki [3] of the same compound?
Answer: 382 nM

Question: For `C[C@@H](O)[C@@H]1NC(=O)[C@H](CCCCN)NC(=O)[C@@H](Cc2c[nH]c3ccccc23)NC(=O)[C@H](Cc2c[nH]c3ccccc23)NC(=O)[C@H](Cc2ccccc2)NC(=O)CCCCCCNC(=O)[C@H](Cc2ccccc2)NC1=O` [L-362855] (cyclo([Ahp]FW[dW]KTF)), which Ki [1] is on record?
Answer: 29 nM

Question: And the Ki [2]?
Answer: 30 nM

Question: And the Ki [3]?
Answer: 1000 nM

Question: Which Ki [1] does the source give for `C[C@@H](O)[C@@H]1NC(=O)[C@H](CCCCN)NC(=O)[C@@H](Cc2c[nH]c3ccccc23)NC(=O)[C@H](Cc2ccc(Cl)cc2)NC(=O)[C@H](Cc2ccccc2)NC(=O)CCCCCCNC(=O)[C@H](Cc2ccccc2)NC1=O` [L-362862] (cyclo([Ahp]F[Phe(4-Cl)][dW]KTF)) here?
Answer: 8.3 nM

Question: And the Ki [2]?
Answer: 24 nM

Question: And the Ki [3]?
Answer: 580 nM

Question: What does the source list for `CC(C)[C@H](NC(=O)[C@H](CCCCN)NC(=O)[C@@H](Cc1c[nH]c2ccccc12)NC(=O)[C@H](Cc1ccc(O)cc1)NC(=O)[C@H](C)NC(=O)[C@H](N)Cc1ccccc1)C(=O)N[C@@H](C)C(=O)N[C@@H](Cc1ccc2ccccc2c1)C(N)=O` [L-Alaninamide,D-phenylalanyl-L-alanyl-L-tyrosyl-D-tryptophyl-L-lysyl-L-valyl-L-alanyl-3-(2-naphthalenyl)-(9CI)] (H-[dF]AY[dW]KVA[2Nal]-NH2)?
Answer: Ki [1]: 6.1 nM; Ki [2]: 152 nM; Ki [3]: 1000 nM

Question: For `C[C@H](O)[C@H]1NC(=O)[C@H](CCCCN)NC(=O)[C@@H](Cc2c[nH]c3ccccc23)NC(=O)[C@@H](Cc2ccccc2)NC(=O)[C@@H](C)N(C)C(=O)[C@@H](Cc2ccccc2)N(C)C1=O` [N-Methylcyclo(D-Ala-D-Phe-D-Trp-L-Lys-D-Thr-N-methyl-D-Phe-)] (cyclo(K[dT][dNMeF][dNMeA][dF][dW])), which Ki [1] is on record?
Answer: 26 nM

Question: What about the Ki [2] of the same compound?
Answer: 18.9 nM

Question: What about the Ki [3] of the same compound?
Answer: 1000 nM

Question: With `NCCCCC1NC(=O)C(Cc2c[nH]c3ccccc23)NC(=O)C(Cc2ccc(O)cc2)NC(=O)C(NC(=O)C(N)Cc2ccccc2)CSSCC(C(=O)NCc2cccc3ccccc23)NC(=O)C(CO)NC1=O` (stereo not given) [NC4-28B] (H-FCYWKSC-{NH(1-naphthylmethyl)}; disulfide 2-7; configuration not given here) as the compound, how does the Ki [1] read?
Answer: 0.002 nM

Question: What about the Ki [2] of the same compound?
Answer: 112 nM

Question: What about the Ki [3] of the same compound?
Answer: 1000 nM

Question: How did the Ki [1] turn out when `NCCCC[C@@H]1NC(=O)[C@@H](Cc2c[nH]c3ccccc23)NC(=O)[C@H](Cc2ccccc2)NC(=O)CCCCCCNC(=O)[C@H](COCc2ccccc2)NC1=O` [c[Aha-Phe-D-Trp-Lys-Ser(Bzl)]] (cyclo([Ahp]F[dW]KS(Bn))) was run?
Answer: 1000 nM

Question: And the Ki [2]?
Answer: 214 nM

Question: What about the Ki [3] of the same compound?
Answer: 80 nM

Question: With `C[C@@H](OCc1ccccc1)[C@@H]1NC(=O)[C@H](CCCCN)NC(=O)[C@@H](Cc2c[nH]c3ccccc23)NC(=O)[C@H](Cc2ccccc2)NC(=O)CCCCCCNC1=O` [c[Aha-Phe-D-Trp-Lys-Thr(Bzl)]] (cyclo([Ahp]F[dW]KT(Bn))) as the compound, how does the Ki [1] read?
Answer: 1000 nM

Question: What about the Ki [2] of the same compound?
Answer: 107 nM

Question: And the Ki [3]?
Answer: 141 nM

Question: For `C[C@@H](O)[C@@H]1NC(=O)[C@H](CCCCN)NC(=O)[C@@H](Cc2c[nH]c3ccccc23)NC(=O)[C@H](Cc2ccccc2)NC(=O)CCCCCCNC1=O` [c[Aha-Phe-D-Trp-Lys-Thr]] (cyclo([Ahp]F[dW]KT)), which Ki [1] is on record?
Answer: 1000 nM

Question: What about the Ki [2] of the same compound?
Answer: 1000 nM

Question: What about the Ki [3] of the same compound?
Answer: 1000 nM

Question: What does the source list for `C[C@@H](OCc1ccccc1)[C@@H]1NC(=O)[C@H](CCCCN)NC(=O)[C@@H](Cc2c[nH]c3ccccc23)NC(=O)[C@H](Cc2ccccc2)NC(=O)CCCCCNC1=O` [c[Ahx-Phe-D-Trp-Lys-Thr(Bzl)]] (cyclo([Ahx]F[dW]KT(Bn)))?
Answer: Ki [1]: 1000 nM; Ki [2]: 73 nM; Ki [3]: 183 nM

Question: For `C[C@@H](OCc1ccccc1)[C@@H]1NC(=O)[C@H](CCCCN)NC(=O)[C@@H](Cc2c[nH]c3ccccc23)NC(=O)[C@H](Cc2ccccc2)NC(=O)CCCCCCCNC1=O` [c[Aoc-Phe-D-Trp-Lys-Thr(Bzl)]] (cyclo([Aoc]F[dW]KT(Bn))), which Ki [1] is on record?
Answer: 1000 nM

Question: What about the Ki [2] of the same compound?
Answer: 101 nM

Question: And the Ki [3]?
Answer: 700 nM

Question: For `C[C@@H]1NC(=O)[C@@H]2CCCN2C(=O)[C@H](Cc2ccccc2)NC(=O)[C@H]([C@@H](C)O)NC(=O)[C@H](CCCCN)NC(=O)[C@@H](Cc2c[nH]c3ccccc23)NC1=O` [cyclo(Pro-Ala-Trp-Lys-Thr-Phe)] (cyclo(A[dW]KTFP)), which Ki [1] is on record?
Answer: 356 nM

Question: And the Ki [2]?
Answer: 244 nM

Question: And the Ki [3]?
Answer: 1000 nM
